# Test system: human BCL11A erythroid enhancer
# Assay: Tiled pooled CRISPR-Cas9 screen for in situ functional mapping of the human BCL11A erythroid enhancer (HbF-high/HbF-low sort, sgRNA deep sequencing)
# Format: cell-based
# Conditions: HbF enrichment; human library NGG and NGG RC sgRNAs filtered for enrichment score >0.259
# Description: Every 20-mer sequence upstream of an NGG or NAG PAM sequence on the sense or anti-sense strand was identified for both the human and mouse orthologous +55, +58, and +62 DNase hypersensitive site (DHS) as well as BCL11A/BCL11a exon 2. Relative to the human hg 19 reference genome, a reference was used with the following substitutions to approximate a common low-HbF associated haplotype: rs1427407-G, rs1896293-T, rs6706648-T, rs6738440-G, rs7606173-C. Each of the sgRNA oligos were synthesized as previously described (37,41,64) and cloned using a Gibson Assembly master mix (New England Biolabs) into lentiGuide-Puro (Addgene plasmid ID 52963) BsmBI digested, PCR purified, and dephosphorylated. Gibson Assembly products were transformed to electrocompetent E. cloni cells (Lucigen). Sufficient colonies were isolated to ensure 90X library coverage for both human and mouse libraries. Plasmid libraries were deep sequenced (described below) to confirm representation.
# Tiled Pooled CRISPR-Cas9 Screen for In Situ Functional Mapping the Human BCL11A Erythroid Enhancer.
# HUDEP clone 2 (HUDEP-2) was utilized as previously described by from Nakamura and colleagues (49). HUDEP-2 cells were expanded in StemSpan SFEM (Stem Cell Technologies) supplemented with 10^−6 M dexamethasone (Sigma), 100 ng/mL human stem cell factor (SCF) (R&D), 3 IU/mL erythropoietin (Amgen), 1% L-glutamine (Life Technologies), and 2% penicillin/streptomycin (Life Technologies). 1 μg/mL doxycycline (Sigma) was included in the culture to induce expression of the human papilloma virus type 16 E6/E7 genes (49). HUDEP-2 cells were differentiated in Iscove's Modified Dulbecco's Medium (IMDM) supplemented with 330 μg/mL halo-transferrin (Sigma), 10 μg/mL recombinant human insulin (Sigma), 2 IU/mL heparin (Sigma), 5% human solvent detergent pooled plasma AB (Rhode Island Blood Center), 3 IU/mL erythropoietin (Amgen), 100 ng/mL human stem cell factor (SCF) (R&D), 1 μg/mL doxycycline (Sigma), 1% L-glutamine (Life Technologies), and 2% penicillin/streptomycin (Life Technologies).
# HUDEP-2 cells with stable Cas9 expression were transduced at low multiplicity with the human sgRNA library lentivirus pool while in expansion medium. […] Cell numbers were maintained throughout the experiment at levels adequate to exceed 1000× representation of the library. 10 μg/mL blasticidin (Sigma) and 1 μg/mL puromycin (Sigma) were added 24 hours after transduction to select for lentiviral library integrants in cells with Cas9. Cells were cultured in expansion media for one week followed by differentiation media for an additional week.
# Intracellular staining was performed by fixing cells with 0.05% glutaraldehyde (grade II) (Sigma) for 10 minutes at room temperature. Cells were centrifuged for 5 minutes at 350 g and then resuspended in 0.1% Triton-X100 (Life Technologies) for 5 minutes at room temperature for permeabilization. Triton X-100 was diluted with phosphate buffered saline (PBS) and then centrifuged at 350 g for 15 minutes. Cells were stained with anti-human antibodies for HbF (clone HbF-1 with FITC or APC conjugation; Life Technologies) and B-hemoglobin antibody (clone 37-8 with PerCP-Cy5 or PE conjugation; Santa Cruz) for 20 minutes in the dark. Cells were washed to remove unbound antibody prior to FACS analysis. 0.2 μg HbF and 2 μg of HbA CB-hemoglobin) antibodies were used per 5 million cells. Control cells exposed to a nontargeting sgRNA sample and BCL11A exon 2 were used as negative and positive controls respectively to establish flow cytometry conditions. Populations of cells with the top and bottom 10% of expression of HbF were sorted by FACS.
# After sorting the HbF-high and HbF-low pools, library preparation and deep sequencing was performed as previously described (37). Briefly, genomic DNA was extracted using the Qiagen Blood and Tissue kit. […]
row,Substance,Enrichment Score
1,"BCL_02005_H_exon2 (guide GTTCATCTGGCACTGCCCACNGGRC; listed as DNA, chemistry not given here)",3.202
2,"BCL_00228_H_D62 (guide TCCCAGCACTTTGGGAGGCCNGG; listed as DNA, chemistry not given here)",0.761
3,"BCL_00065_H_D55 (guide GCCAACAGTGATAACCAGCANGG; listed as DNA, chemistry not given here)",0.4886
4,"BCL_00181_H_D58 (guide CCTTCCGAAAGAGGCCCCCCNGG; listed as DNA, chemistry not given here)",0.3399
5,"BCL_00266_H_exon2 (guide TCCCGTGGAGGTTGGCATCCNGG; listed as DNA, chemistry not given here)",0.5889
6,"BCL_01831_H_D62 (guide GGGTGGCTGTTTAAAGAGGGNGGRC; listed as DNA, chemistry not given here)",0.4104
7,"BCL_01622_H_D58 (guide GAAGGGTTTGGCCTCTGATTNGGRC; listed as DNA, chemistry not given here)",1.378
8,"BCL_01833_H_D62 (guide AGTTCAAGTAGATATCAGAANGGRC; listed as DNA, chemistry not given here)",0.6116
9,"BCL_00251_H_exon2 (guide GGCCCGTTGGGAGCTCCAGANGG; listed as DNA, chemistry not given here)",1.911
10,"BCL_02007_H_exon2 (guide GGCACTGCCCACAGGTGAGGNGGRC; listed as DNA, chemistry not given here)",3.351
11,"BCL_00091_H_D55 (guide CCCACTTCCCTTCCTAGAATNGG; listed as DNA, chemistry not given here)",1.168
12,"BCL_02002_H_exon2 (guide AAAATAAGAATGTCCCCCAANGGRC; listed as DNA, chemistry not given here)",0.505
13,"BCL_01449_H_D55 (guide GTGCTTGGTCGGCACTGATANGGRC; listed as DNA, chemistry not given here)",1.134
14,"BCL_00258_H_exon2 (guide GCCAGATGAACTTCCCATTGNGG; listed as DNA, chemistry not given here)",1.593
15,"BCL_01801_H_D62 (guide CCCCGGCCTCCCAAAGTGCTNGGRC; listed as DNA, chemistry not given here)",0.6113
16,"BCL_01829_H_D62 (guide TGTGGGGTGGCTGTTTAAAGNGGRC; listed as DNA, chemistry not given here)",0.496
17,"BCL_01620_H_D58 (guide TTTATCACAGGCTCCAGGAANGGRC; listed as DNA, chemistry not given here)",1.38

row,Substance,Enrichment Score
1,"BCL_00249_H_exon2 (guide TGAACCAGACCACGGCCCGTNGG; listed as DNA, chemistry not given here)",1.175
2,"BCL_01993_H_exon2 (guide ACCTGGATGCCAACCTCCACNGGRC; listed as DNA, chemistry not given here)",1.974
3,"BCL_01825_H_D62 (guide ATTTGCTCTTCTCCAGGGTGNGGRC; listed as DNA, chemistry not given here)",0.2818
4,"BCL_02014_H_exon2 (guide TCTGTAAGAATGGCTTCAAGNGGRC; listed as DNA, chemistry not given here)",0.9901
5,"BCL_00096_H_D55 (guide AGCAAATAGGCTTAGTGTGCNGG; listed as DNA, chemistry not given here)",0.3521
6,"BCL_00085_H_D55 (guide GGGTGTGCCCTGAGAAGGTGNGG; listed as DNA, chemistry not given here)",0.5011
7,"BCL_00073_H_D55 (guide AGCACACAAGATGCACACCCNGG; listed as DNA, chemistry not given here)",0.4199
8,"BCL_01461_H_D55 (guide GCCCTGCTGGTTATCACTGTNGGRC; listed as DNA, chemistry not given here)",0.5924
9,"BCL_00265_H_exon2 (guide GCATCCAATCCCGTGGAGGTNGG; listed as DNA, chemistry not given here)",1.291
10,"BCL_01427_H_D55 (guide GGCTAAATAATGAATGTCCCNGGRC; listed as DNA, chemistry not given here)",0.367
11,"BCL_00262_H_exon2 (guide CCTCTGCTTAGAAAAAGCTGNGG; listed as DNA, chemistry not given here)",1.001
12,"BCL_02010_H_exon2 (guide CCCCTTCTGGAGCTCCCAACNGGRC; listed as DNA, chemistry not given here)",0.5003
13,"BCL_00267_H_exon2 (guide TGGCATCCAGGTCACGCCAGNGG; listed as DNA, chemistry not given here)",2.049
14,"BCL_00058_H_D55 (guide CCTCTATGTAGACGGGTGTGNGG; listed as DNA, chemistry not given here)",0.3237
15,"BCL_01495_H_D55 (guide AGGGAGAAATGAGACAAAAGNGGRC; listed as DNA, chemistry not given here)",0.2643
16,"BCL_00229_H_D62 (guide CCCAGCACTTTGGGAGGCCGNGG; listed as DNA, chemistry not given here)",0.6113

# Same assay, conditions: human library sgRNAs that produced HbF enrichment over 0.259
row,Substance,Dropout Score
1,"BCL_02005_H_exon2 (guide GTTCATCTGGCACTGCCCACNGGRC; listed as DNA, chemistry not given here)",−1.837
2,"BCL_00228_H_D62 (guide TCCCAGCACTTTGGGAGGCCNGG; listed as DNA, chemistry not given here)",−5.658
3,"BCL_00065_H_D55 (guide GCCAACAGTGATAACCAGCANGG; listed as DNA, chemistry not given here)",−0.5415
4,"BCL_00181_H_D58 (guide CCTTCCGAAAGAGGCCCCCCNGG; listed as DNA, chemistry not given here)",0.2621
5,"BCL_00266_H_exon2 (guide TCCCGTGGAGGTTGGCATCCNGG; listed as DNA, chemistry not given here)",−0.1802
6,"BCL_01831_H_D62 (guide GGGTGGCTGTTTAAAGAGGGNGGRC; listed as DNA, chemistry not given here)",−0.1486
7,"BCL_01622_H_D58 (guide GAAGGGTTTGGCCTCTGATTNGGRC; listed as DNA, chemistry not given here)",−0.6695
8,"BCL_01833_H_D62 (guide AGTTCAAGTAGATATCAGAANGGRC; listed as DNA, chemistry not given here)",0.2289
9,"BCL_00251_H_exon2 (guide GGCCCGTTGGGAGCTCCAGANGG; listed as DNA, chemistry not given here)",−1.236
10,"BCL_02007_H_exon2 (guide GGCACTGCCCACAGGTGAGGNGGRC; listed as DNA, chemistry not given here)",−1.662
11,"BCL_00091_H_D55 (guide CCCACTTCCCTTCCTAGAATNGG; listed as DNA, chemistry not given here)",−0.5042
12,"BCL_02002_H_exon2 (guide AAAATAAGAATGTCCCCCAANGGRC; listed as DNA, chemistry not given here)",−0.4259
13,"BCL_01449_H_D55 (guide GTGCTTGGTCGGCACTGATANGGRC; listed as DNA, chemistry not given here)",−0.6101
14,"BCL_00258_H_exon2 (guide GCCAGATGAACTTCCCATTGNGG; listed as DNA, chemistry not given here)",−1.899
15,"BCL_01801_H_D62 (guide CCCCGGCCTCCCAAAGTGCTNGGRC; listed as DNA, chemistry not given here)",−8.0566
16,"BCL_01829_H_D62 (guide TGTGGGGTGGCTGTTTAAAGNGGRC; listed as DNA, chemistry not given here)",−0.1469
17,"BCL_01620_H_D58 (guide TTTATCACAGGCTCCAGGAANGGRC; listed as DNA, chemistry not given here)",−0.9481

row,Substance,Dropout Score
1,"BCL_00249_H_exon2 (guide TGAACCAGACCACGGCCCGTNGG; listed as DNA, chemistry not given here)",−0.8221
2,"BCL_01993_H_exon2 (guide ACCTGGATGCCAACCTCCACNGGRC; listed as DNA, chemistry not given here)",−1.736
3,"BCL_01825_H_D62 (guide ATTTGCTCTTCTCCAGGGTGNGGRC; listed as DNA, chemistry not given here)",−0.3945
4,"BCL_02014_H_exon2 (guide TCTGTAAGAATGGCTTCAAGNGGRC; listed as DNA, chemistry not given here)",−0.7711
5,"BCL_00096_H_D55 (guide AGCAAATAGGCTTAGTGTGCNGG; listed as DNA, chemistry not given here)",−0.2396
6,"BCL_00085_H_D55 (guide GGGTGTGCCCTGAGAAGGTGNGG; listed as DNA, chemistry not given here)",−0.6263
7,"BCL_00073_H_D55 (guide AGCACACAAGATGCACACCCNGG; listed as DNA, chemistry not given here)",−0.8372
8,"BCL_01461_H_D55 (guide GCCCTGCTGGTTATCACTGTNGGRC; listed as DNA, chemistry not given here)",−0.5115
9,"BCL_00265_H_exon2 (guide GCATCCAATCCCGTGGAGGTNGG; listed as DNA, chemistry not given here)",−0.8895
10,"BCL_01427_H_D55 (guide GGCTAAATAATGAATGTCCCNGGRC; listed as DNA, chemistry not given here)",−0.2716
11,"BCL_00262_H_exon2 (guide CCTCTGCTTAGAAAAAGCTGNGG; listed as DNA, chemistry not given here)",−1.352
12,"BCL_02010_H_exon2 (guide CCCCTTCTGGAGCTCCCAACNGGRC; listed as DNA, chemistry not given here)",−0.1463
13,"BCL_00267_H_exon2 (guide TGGCATCCAGGTCACGCCAGNGG; listed as DNA, chemistry not given here)",−2.006
14,"BCL_00058_H_D55 (guide CCTCTATGTAGACGGGTGTGNGG; listed as DNA, chemistry not given here)",−0.4848
15,"BCL_01495_H_D55 (guide AGGGAGAAATGAGACAAAAGNGGRC; listed as DNA, chemistry not given here)",−0.4932
16,"BCL_00229_H_D62 (guide CCCAGCACTTTGGGAGGCCGNGG; listed as DNA, chemistry not given here)",−8.717
